Data on eight compounds can be found in PubChem BioAssay (NCI).

Structures are written as SMILES.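 Step 1: Grow cells in 96-well plates. Step 2: Expose to compound for 48 hours at 5 concentrations. Step 3: Interpolate endpoints linearly; if unreached, use highest concentration. The concentration for 50% growth inhibition is given as GI50. TGI denotes the concentration required for complete inhibition of growth.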 Bounds are passed on as bounds.

Among the test systems are MDA-MB-231 breast; ACHN renal; SF-295 CNS; BT-549 breast; HL-60(TB) leukemia; KM12 colon; NCI-H522 lung; SR leukemia; RXF 393 renal; A549 NSCLC.
Holding throughout (assay): DTP human tumour cell line panel, 48 h

Take `COc1ccc2c(c1)OC(N)=C(C#N)C2c1ccc(F)c(F)c1` (stereo not drawn): the GI50 is 1330 nM in the assay with MDA-MB-231 breast; 564 nM with ACHN renal; 393 nM in the assay with SF-295 CNS; 598 nM in the assay on BT-549 breast; 272 nM in the assay on HL-60(TB) leukemia; 349 nM in the assay on KM12 colon. For the same compound, the GI50 in the assay on NCI-H522 lung was 255 nM; in the assay with SR leukemia it was 325 nM; in the assay on RXF 393 renal it was 365 nM; in the assay with A549 NSCLC, 706 nM. For the same compound, the TGI in the assay on MDA-MB-231 breast is 62.1 µM; in the assay with ACHN renal, over 72.8 µM; with SF-295 CNS, over 52.4 µM; with BT-549 breast, 65.6 µM; with HL-60(TB) leukemia it was 0.716 µM; in the assay with KM12 colon, 26 µM. In addition, the TGI in the assay with NCI-H522 lung is 9.25 µM; in the assay on SR leukemia, over 52.2 µM; in the assay on RXF 393 renal, 5.57 µM; in the assay on A549 NSCLC it was over 100 µM.

Turning to `CN1CCN(C(=O)OCc2nc3c(N4CCOCC4)nc(-c4ccccc4)nc3n2C)CC1`, the GI50 with MDA-MB-231 breast was 1090 nM; in the assay on ACHN renal, 544 nM; with SF-295 CNS it was 1580 nM; in the assay with BT-549 breast it was 1000 nM; in the assay on HL-60(TB) leukemia, 753 nM; in the assay with KM12 colon it was 1550 nM. Besides, the GI50 was 596 nM in the assay with NCI-H522 lung, 350 nM in the assay with SR leukemia, 687 nM in the assay with RXF 393 renal and 1680 nM in the assay with A549 NSCLC. Moreover, the TGI is 2.37 µM with MDA-MB-231 breast; 1.77 µM in the assay on ACHN renal; 2.96 µM with SF-295 CNS; 2.25 µM with BT-549 breast; 2.66 µM with HL-60(TB) leukemia; 3.53 µM with KM12 colon. In addition, the TGI in the assay on NCI-H522 lung was 2.4 µM; in the assay on SR leukemia it was over 100 µM; in the assay on RXF 393 renal it was 1.98 µM; with A549 NSCLC, 4.13 µM.

As for `CC(C)c1ccc2c(c1)CCC1C(C)(CN)CCCC21C` (stereo not drawn), the TGI with MDA-MB-231 breast was 2.95 µM; in the assay with ACHN renal, 3.09 µM; in the assay on SF-295 CNS, 3.34 µM; in the assay with BT-549 breast, 3.43 µM; in the assay on HL-60(TB) leukemia it was 3.09 µM; in the assay with KM12 colon, 3.34 µM. The TGI in the assay on NCI-H522 lung amounted to 3.36 µM; in the assay with SR leukemia it was 2.99 µM; with RXF 393 renal it was 2.98 µM; with A549 NSCLC, 3.37 µM.

On to `NS(=O)(=O)c1ccc(N=Nc2c(O)[nH]c3cccc(CCc4ccncc4)c23)cc1`, for which the GI50 in the assay on MDA-MB-231 breast, with ACHN renal, in the assay with SF-295 CNS, with BT-549 breast, in the assay on HL-60(TB) leukemia and with KM12 colon was over 25000 nM throughout. For the same compound, the GI50 in the assay on NCI-H522 lung, in the assay with SR leukemia, with RXF 393 renal and with A549 NSCLC was over 25000 nM in each case. Moreover, the TGI in the assay on MDA-MB-231 breast, in the assay with ACHN renal, in the assay on SF-295 CNS, in the assay on BT-549 breast, in the assay with HL-60(TB) leukemia and in the assay on KM12 colon was over 25 µM each time. Besides, the TGI in the assay on NCI-H522 lung, in the assay with SR leukemia, with RXF 393 renal and with A549 NSCLC was over 25 µM each time.

As to `CCCC(c1cc(C(C)(C)C)c(O)cc1C)c1cc(C(C)(C)C)c(O)cc1C`, the TGI was 9.57 µM in the assay with MDA-MB-231 breast; 7.4 µM in the assay on ACHN renal; 6.11 µM in the assay on SF-295 CNS; 22.7 µM in the assay on BT-549 breast; 4.94 µM with HL-60(TB) leukemia; 11.1 µM with KM12 colon. In addition, the TGI stood at 5.72 µM with NCI-H522 lung, 5.33 µM with SR leukemia, 4.56 µM in the assay on RXF 393 renal and 9.78 µM in the assay with A549 NSCLC.

In the case of `Cc1cccc2c1NC(=O)[C@@H](NC(=O)[C@H](CCC(F)(F)F)[C@H](CCC(F)(F)F)C(N)=O)N=C2c1cccc(F)c1`, the GI50 with MDA-MB-231 breast was 18200 nM; in the assay on ACHN renal, 45100 nM; with SF-295 CNS, 25800 nM; with BT-549 breast, 16200 nM; with HL-60(TB) leukemia, over 100000 nM; in the assay with KM12 colon, over 100000 nM. In addition, the GI50 with NCI-H522 lung was 16600 nM; in the assay with SR leukemia, 49400 nM; in the assay with RXF 393 renal, 13500 nM; in the assay on A549 NSCLC it was 36600 nM. Moreover, the TGI in the assay on MDA-MB-231 breast was 59.1 µM; in the assay on ACHN renal, over 100 µM; in the assay with SF-295 CNS, over 100 µM; in the assay on BT-549 breast, 66.1 µM; with HL-60(TB) leukemia, over 100 µM; in the assay on KM12 colon, over 100 µM. Moreover, the TGI in the assay with NCI-H522 lung is 53.7 µM; in the assay on SR leukemia it was over 100 µM; with RXF 393 renal, 40.4 µM; with A549 NSCLC, over 100 µM.

On to `COC(=O)Nc1nc2ccc(C(=O)C3CC3)cc2[nH]1`, for which the GI50 was 1280 nM with MDA-MB-231 breast; 790 nM in the assay on ACHN renal; 248 nM in the assay on SF-295 CNS; 1010 nM in the assay on BT-549 breast; 448 nM in the assay with HL-60(TB) leukemia; 283 nM with KM12 colon. Besides, the GI50 in the assay with NCI-H522 lung is 426 nM; in the assay on SR leukemia, 455 nM; with RXF 393 renal, 345 nM; in the assay on A549 NSCLC, 452 nM. The TGI was over 46.1 µM in the assay with MDA-MB-231 breast; over 100 µM with ACHN renal; over 30.7 µM in the assay with BT-549 breast; over 100 µM with HL-60(TB) leukemia; 1.68 µM with KM12 colon; 16.4 µM in the assay on NCI-H522 lung. Moreover, the TGI in the assay on SR leukemia and in the assay on A549 NSCLC was over 100 µM in each case.

Turning to `O=C(NCCNc1nccc(-c2c(-c3ccc(F)cc3)nc3sccn23)n1)Nc1cccc(C(F)(F)F)c1`, the GI50 with MDA-MB-231 breast is 3280 nM; in the assay on ACHN renal, 4140 nM; in the assay on SF-295 CNS, 4280 nM; in the assay with BT-549 breast it was 13200 nM; in the assay with HL-60(TB) leukemia, 11500 nM; in the assay with KM12 colon, 6430 nM. The GI50 was 12200 nM in the assay with NCI-H522 lung, 5400 nM with SR leukemia, 1990 nM in the assay on RXF 393 renal and 5510 nM with A549 NSCLC. Besides, the TGI was 10.1 µM in the assay on MDA-MB-231 breast; 36.7 µM with ACHN renal; 17.6 µM in the assay on SF-295 CNS; 30.5 µM with BT-549 breast; over 100 µM in the assay on HL-60(TB) leukemia; 23.9 µM in the assay with KM12 colon. Besides, the TGI in the assay on NCI-H522 lung came to 26 µM; in the assay with SR leukemia, 55.3 µM; with RXF 393 renal it was 6.05 µM; in the assay with A549 NSCLC, 24.5 µM.

The term GI50 denotes the concentration giving 50% growth inhibition. Usually TGI stands for the concentration at which net growth stops. A low value points to more potent growth arrest.
